Values of other authors in publication PMC5862788 (Antiviral therapy, 2018).
Where two headings read alike, the source gives them in different places.

Tested on: HCV

## CC(C)(C)OC(=O)N[C@H]1CCCCC/C=C\[C@@H]2C[C@@]2(C(=O)NS(=O)(=O)C2CC2)NC(=O)[C@@H]2C[C@@H](OC(=O)N3Cc4cccc(F)c4C3)CN2C1=O [danoprevir]
100 mg bid
  predicted effectiveness ε: 0.976
monotherapy, 200 mg tid and 300 mg bid
  predicted effectiveness ε: 0.992

## CC(C)C(=O)OC[C@H]1O[C@@H](n2ccc(N)nc2=O)[C@](C)(F)[C@@H]1OC(=O)C(C)C [mericitabine]
1500 mg bid
  predicted effectiveness ε: 0.997

## COC(=O)N[C@H](C(=O)N1CCC[C@H]1c1nc(-c2ccc(-c3ccc(-c4c[nH]c([C@@H]5CCCN5C(=O)[C@@H](NC(=O)OC)C(C)C)n4)cc3)cc2)c[nH]1)C(C)C [daclatasvir]
200 mg tid
  predicted effectiveness ε: 0.996
